Source: patent US20230220063A1, “IL-1BETA BINDING ANTIBODIES FOR USE IN TREATING CANCER” (NOVARTIS AG, priority 2017, published 2023)

B1: Vantictumab: a therapeutic antibody which binds 5/10 Frizzled receptors (anti-Wnt) (antibody, chains of the INN, looked up, V domains shown)
VH: EVQLVESGGGLVQPGGSLRLSCAASGFTFSHYTLSWVRQAPGKGLEWVSVISGDGSYTYYADSVKGRFTISSDNSKNTLYLQMNSLRAEDTAVYYCARNFIKYVFANWGQGTLVTVSS
VL: DIELTQPPSVSVAPGQTARISCSGDNIGSFYVHWYQQKPGQAPVLVIYDKSNRPSGIPERFSGSNSGNTATLTISGTQAEDEADYYCQSYANTLSLVFGGGTKLTVL

Tests used:
[1] = test system: vasculature in trabecular bone; assay: Blocking IL-1β signalling: blood vessels in the bone microenvironment of mice; assay type: in vivo
Method: Vasculature was visualised following CD34 and endomucin immunohistochemistry and the concentration of vascular endothelial growth factor (VEGF) and endothelin-1 in serum and/or bone marrow was determined by ELISA. Effects on bone volume were measured by Micro computed tomography (uCT).
(§1) Tumor cells, serum, and bone were subsequently resected for downstream analysis.

[2] = test system: MDA-MB-231 Luc2-TdTomato cells; assay: Spontaneous human breast cancer metastasis to human bone implants in NOD SCID mice; assay type: in vivo
Method: To model human breast cancer metastasis to human bone implants two human bone discs were implanted subcutaneously into 10-week old female NOD SCID mice (n=10/group) under isofluorane anaesthetic. Mice received an injection of 0.003 mg vetergesic and Septrin was added to the drinking water for 1 week following bone implantation. Mice were left for 4 weeks before injecting 1×10^5 MDA-MB-231 Luc2-TdTomato, MCF7 Luc2 or T47D Luc2 cells in 20% Martigel/79% PBS/1% […] into the two hind mammary fat pads. Primary tumor growth and development of metastases was monitored weekly using an IVIS […] system (Caliper Life Sciences) following sub-cutaneous injection of 30 mg/ml D-luciferin (Invitrogen). On termination of experiments mammary tumors, circulating tumor cells, serum and bone metastases were resected. RNA was processed for downstream analysis by real time PCR, and cell lysates were taken for protein analysis and whole tissue for histology as previously described (Nutter et al., 2014; Ottewell et al., 2014a).
as §1
Whole blood was centrifuged at 10,000 g for 5 minutes and the serum removed for ELISA assays. The cell pellet was re-suspended in 5 ml of FSM lysis solution (Sigma-Aldrich, Pool, UK) to lyse red blood cells. Remaining cells were re-pelleted, washed 3x in PBS and re-suspended in a solution of PBS/10% FCS. Samples from 10 mice per group were pooled prior to isolation of TdTomato positive tumor cells using a MoFlow High performance cell sorter (Beckman Coulter, Cambridge UK) with the […] laser line from a Coherent I-90C tenable argon ion (Coherent, Santa Clara, CA). TdTomato fluorescence was detected by a 555LP dichroic long pass and a 580/30 nm band pass filter. Acquisition and analysis of cells was performed using Summit 4.3 software. Following sorting cells were immediately placed in RNA protect cell reagent (Ambion, Paisley, Renfrew, UK) and stored at -80° C. before RNA extraction.

[3] = test system: patient-derived breast cancer cells; assay: Breast CSC mammosphere colony formation after exposure to human bone marrow in vitro; assay type: cell-based
From the text: (§2) Dissemination of tumour cells to bone marrow is an early event in breast cancer, however these cells may lie dormant in the bone environment for many years prior to eventual colonisation. Treatment for bone metastases is not curative, therefore new adjuvant therapies preventing disseminated cells from becoming metastatic lesions may be an effective therapeutic option to improve clinical outcomes. There is evidence that cancer stemcells (CSCs) within breast tumours are the cells capable of metastasis; however, little is known about which bone marrow-derived factors support dormant CSC survival and eventual colonisation. Using in vitro culture of primary human bone marrow and patient-derived breast cancer cells, and in vivo metastasis models of human breast cancer cells implanted into mice, we investigated signalling pathways regulating CSC colony formation in bone.
(§3) Dissemination of tumour cells to bone marrow is an early event in breast cancer, but these cells may lie dormant in the bone environment for many years before the development of clinical bone metastases. There is evidence that cancer stem cells (CSCs) within breast tumours are the cells capable of metastasis, but the effect of the bone environment on the regulation of CSCs has not been investigated. […] CSC activity following isolation from the bone environment was measured using mammosphere colony formation.

[4] = test system: hsCRP; assay: Gevokizumab: hsCRP change in type 2 diabetes patients; assay type: in vivo, human; details: top dose 0.3 mg/kg (~20 mg) Q4W
[5] = Gevokizumab clinical pharmacokinetics; assay type: in vivo, human
[6] = test system: human breast cancer cells; assay: Spontaneous bone metastasis of human breast cancer cells implanted into mice; details: mouse
From the text: as §2, §3

Molecule	average length of new blood vessels ([1]; 1 mg/kg for 21/31 days)	endothelin 1 and VEGF in the bone marrow (ELISA) ([1]; compared with control)	decrease in VEGF concentration ([1]; mice treated with 1 mg/kg for 21 days) [%]	decrease in the concentration of endothelin-1 ([1]; mice treated with 1 mg/kg for 31 days) [%]	average length of CD34^+ blood vessels in trabecular bone ([1]; p < 0.01 vs control)	mice with metastasis detected in human bone implants ([2]; 1 mg/kg IL-1Ra daily or 10 mg/kg canakinumab s.c. every 14 days from day 7, control 7 out of 10)	bone metastasis, photons/sec mean values ([2]; Placebo 3.60E+06) [photons/sec]	size of bone metastases ([2]; compared with control group)	bone turnover and neovascularisation ([2]; mouse, in vivo)	onset of breast cancer metastasis in human bone ([2]; mouse, in vivo)	primary tumour growth ([2]; murine model of spontaneous human breast cancer metastasis to human bone)	tumor cells counted in whole blood ([2]; placebo 108 tumor cells/ml) [tumor cells/ml]	induction of CSC activity by the bone marrow in vitro [3]	reduction of hsCRP [4]	Bioavailability ([5]; administered subcutaneously)	half-life ([5]; human, in vivo)	spontaneous bone metastasis in vivo [6]
Anakinra: IL-1 receptor antagonist, clinically available recombinant form of the receptor antagonist	downwards trend	reduced concentrations	22	69	reduced the average length of CD34^+ blood vessels	4 out of 10	4.83E+04	smaller than those detected in the control group	reduced bone turnover and neovascularisation	delayed onset of breast cancer metastasis in human bone	without affecting the development of primary breast cancer	3	reverses induction of CSC activity	–	–	–	–
gevokizumab: high-affinity, humanized monoclonal antibody of the IgG2 isotype to interleukin-1β; INN number 9310; allosteric inhibitor	–	–	–	–	–	–	–	–	–	–	–	–	–	up to 45%	about 56%	about 35 days	–
B1	–	–	–	–	–	–	–	–	–	–	–	–	reverses induction of CSC activity	–	–	–	prevents spontaneous bone metastasis
